According to patent publication US9540384B2, “Pyrrolidino heterocycles” (Hoffmann-La Roche Inc., priority 2012, dated 2017):

Target: human PDE10A full length (Homo sapiens (Human), UniProt Q9Y233)
Test: human PDE10A full length Scintillation Proximity Assay (SPA)
Assay type: biochemical
Details: PDE10A enzyme, 50 nM cGMP + 50 nM [3H]-cGMP, 20 minutes at room temperature
Method: The following test was carried out in order to determine the activity of the compounds of the present invention. PDE10 activity of the compounds of the present invention was determined using a Scintillation Proximity Assay (SPA)-based method similar to the one previously described (Fawcett, L. et al., Proc Natl Acad Sci USA (2000) 97(7):3702-3707).
The human PDE10A full length assay was performed in 96-well micro titer plates. The reaction mixture of 50 μl contained 20 mM HEPES pH=7.5/10 mM MgCl2/0.05 mg/ml BSA (Sigma cat. #A-7906), 50 nM cGMP (Sigma, cat. #G6129) and 50 nM [3H]-cGMP (GE Healthcare, cat. #TRK392 S.A. 13.2 Ci/mmol), 3.75 ng/well PDE10A enzyme (Enzo Life Science, Lausen, Switzerland cat #SE-534) with or without a specific test compound. A range of concentrations of the potential inhibitor was used to generate data for calculating the concentration of inhibitor resulting in 50% of the effect (e.g. IC50, the concentration of the competitor inhibiting PDE10A activity by 50%). Non-specific activity was tested without the enzyme. The reaction was initiated by the addition of the substrate solution (cGMP and [3H]-cGMP) and allowed to progress for 20 minutes at room temperature. The reaction was terminated by adding 25 μl of YSi-SPA scintillation beads (GE Healthcare, cat. #RPNQ0150) in 18 mM zinc sulphate solution (stop reagent). After 1 h under shaking, the plate was centrifuged one minute at 170 g to allow beads to settle. Afterwards, radioactive counts were measured on a Perkin Elmer TopCount Scintillation plate reader.

Sequence of human PDE10A full length (Q9Y233 other isoform, or with tags, fused parts or gaps): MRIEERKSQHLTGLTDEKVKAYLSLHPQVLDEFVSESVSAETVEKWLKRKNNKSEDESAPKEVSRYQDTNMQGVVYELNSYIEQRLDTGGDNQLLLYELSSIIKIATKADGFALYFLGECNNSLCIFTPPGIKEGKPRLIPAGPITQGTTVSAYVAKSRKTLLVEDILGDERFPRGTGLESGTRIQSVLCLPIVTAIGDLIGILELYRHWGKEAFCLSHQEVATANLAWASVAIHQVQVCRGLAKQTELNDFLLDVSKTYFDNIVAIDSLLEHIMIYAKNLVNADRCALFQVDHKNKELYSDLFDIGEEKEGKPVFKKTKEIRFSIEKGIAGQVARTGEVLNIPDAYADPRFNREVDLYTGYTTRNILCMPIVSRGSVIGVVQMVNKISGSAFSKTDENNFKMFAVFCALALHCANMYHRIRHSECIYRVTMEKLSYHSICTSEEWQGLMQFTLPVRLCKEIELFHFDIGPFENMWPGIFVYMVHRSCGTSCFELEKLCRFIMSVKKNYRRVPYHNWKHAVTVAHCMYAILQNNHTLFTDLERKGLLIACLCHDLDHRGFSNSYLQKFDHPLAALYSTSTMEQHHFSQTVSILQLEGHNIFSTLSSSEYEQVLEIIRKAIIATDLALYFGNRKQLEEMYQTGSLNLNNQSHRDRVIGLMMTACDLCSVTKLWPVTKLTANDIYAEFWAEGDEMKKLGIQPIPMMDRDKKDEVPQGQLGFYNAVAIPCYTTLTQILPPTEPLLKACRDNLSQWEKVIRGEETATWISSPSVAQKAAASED

Row | IC50 | SMILES
1 | 750 nM | CN(C)c1cccc(/C=C/c2nc(N(C)C)c3cc(Cl)ccc3n2)n1 [Example 41, (E)-6-Chloro-2-(2-(6-(dimethylamino)pyridin-2-yl)vinyl)-N,N-dimethylquinazolin-4-amine]
2 | 1680 nM | CN(C)c1cccc(CCc2nc(N(C)C)c3cc(Cl)ccc3n2)n1 [Example 42, 6-Chloro-2-(2-(6-(dimethylamino)pyridin-2-yl)ethyl)-N,N-dimethyl-quinazolin-4-amine]
3 | 12 nM | Cc1ncc(C)n2nc(/C=C/c3cccc(N4CCCC4)n3)nc12 [Example 43, (E)-5,8-Dimethyl-2-(2-(6-(pyrrolidin-1-yl)pyridin-2-yl)vinyl)[1,2,4]triazolo[1,5-a]pyrazine]
4 | 160 nM | Cc1nc2ccc(OCc3cccc(N4CCCC4)n3)nn2c1C [Example 44, 2,3-Dimethyl-6-((6-(pyrrolidin-1-yl)pyridin-2-yl)methoxy)imidazo[1,2-b]pyridazine]
5 | 4.5 nM | Cc1ncc(C)n2nc(CCc3cccc(N4CCCC4)n3)nc12 [Example 45, 5,8-Dimethyl-2-(2-(6-(pyrrolidin-1-yl)pyridin-2-yl)ethyl)-[1,2,4]triazolo-[1,5-a]pyrazine]
6 | 300 nM | Cc1cc(C)n2nc(CCc3cncc(N4CCCC4)n3)nc2n1 [Example 46, 5,7-Dimethyl-2-(2-(6-(pyrrolidin-1-yl)pyrazin-2-yl)ethyl)-[1,2,4]triazolo-[1,5-a]pyrimidine]
7 | 31 nM | Cc1cc(C)n2nc(/C=C/c3cccc(N4CCCC4)n3)nc2n1 [Example 47, (E)-5,7-Dimethyl-2-(2-(6-(pyrrolidin-1-yl)pyridin-2-yl)vinyl)[1,2,4]triazolo[1,5-a]pyrimidine]
8 | 110 nM | Cc1cc(C)n2nc(CCc3cccc(N4CCCC4)n3)nc2n1 [Example 48, 5,7-Dimethyl-2-[2-(6-pyrrolidin-1-yl-pyridin-2-yl)-ethyl]-[1,2,4]triazolo[1,5-a]pyrimidine]
9 | 630 nM | Cc1nc2ccc(CCc3cccc(N4CCCC4)n3)nn2c1C [Example 49, 2,3-Dmethyl-6-(2-(6-(pyrrolidin-1-yl)pyridin-2-yl)ethyl)imidazo[1,2-b]pyridazine]
10 | 18 nM | Cc1ncc(C)n2nc(/C=C/c3cncc(N4CCCC4)n3)nc12 [Example 50, (E)-5,8-Dim ethyl-2-(2-(6-(pyrrolidin-1-yl)pyrazin-2-yl)vinyl)[1,2,4]triazolo[1,5-a]pyrazine]
11 | 140 nM | Cc1ncc(C)n2nc(CCc3cncc(N4CCCC4)n3)nc12 [Example 51, 5,8-Dimethyl-2-(2-(6-(pyrrolidin-1-yl)pyrazin-2-yl)ethyl)-[1,2,4]triazolo[1,5-a]pyrazine]
12 | 540 nM | CCc1nc2ccc(OCc3cccc(N4CCCC4)n3)nn2c1C [Example 52, 2-Ethyl-3-methyl-6-((6-(pyrrolidin-1-yl)pyridin-2-yl)methoxy)imidazo[1,2-b]pyridazine]
13 | 69 nM | Cc1nn2ccc(OCc3cccc(N4CCCC4)n3)nc2c1C [Example 53, 2,3-Dimethyl-5-((6-(pyrrolidin-1-yl)pyridin-2-yl)methoxy)pyrazolo[1,5-a]pyrimidine]
14 | 260 nM | Cc1cn2nc(OCc3cccc(N4CCCC4)n3)ccc2n1 [Example 54, 2-Methyl-6-((6-(pyrrolidin-1-yl)pyridin-2-yl)methoxy)imidazo[1,2-b]pyridazine]
15 | 600 nM | c1cc(COc2ccc3nc(C4CC4)cn3n2)nc(N2CCCC2)c1 [Example 55, 2-Cyclopropyl-6-((6-(pyrrolidin-1-yl)pyridin-2-yl)methoxy)imidazo[1,2-b]pyridazine]
16 | 1050 nM | Cc1c(C(N)=O)nc2ccc(OCc3cccc(N4CCCC4)n3)nn12 [Example 56, 3-Methyl-6-((6-(pyrrolidin-1-yl)pyridin-2-yl)methoxy)imidazo[1,2-b]pyridazine-2-carboxamide]
17 | 200 nM | Cc1c(C(F)(F)F)nc2ccc(NCc3cccc(N4CCCC4)n3)nn12 [Example 57, 3-Methyl-N-((6-(pyrrolidin-1-yl)pyridin-2-yl)methyl)-2-(trifluoromethyl)imidazo[1,2-b]pyridazin-6-amine]
18 | 300 nM | Cc1nn2ccc(CCc3cccc(N4CCCC4)n3)nc2c1C [Example 58, 2,3-Dimethyl-5-(2-(6-(pyrrolidin-1-yl)pyridin-2-yl)ethyl)pyrazolo[1,5-a]pyrimidine]
